Source: patent US11028074B2, “CD73 inhibitors” (Eli Lilly and Company, priority 2018, dated 2021)

What was measured:
[1] = target: T1, CD73 (Homo sapiens, UniProt P21589); assay: LC/MS Based Assay for Measuring CD73 Activity in Human Serum; type: biochemical; parameters: from tissue; host or cells: normal human serum; details: concentrations corrected with the fraction unbound, read-out: EC50, inhibition of CD73 activity in human serum
T1 sequence (P21589 27-549): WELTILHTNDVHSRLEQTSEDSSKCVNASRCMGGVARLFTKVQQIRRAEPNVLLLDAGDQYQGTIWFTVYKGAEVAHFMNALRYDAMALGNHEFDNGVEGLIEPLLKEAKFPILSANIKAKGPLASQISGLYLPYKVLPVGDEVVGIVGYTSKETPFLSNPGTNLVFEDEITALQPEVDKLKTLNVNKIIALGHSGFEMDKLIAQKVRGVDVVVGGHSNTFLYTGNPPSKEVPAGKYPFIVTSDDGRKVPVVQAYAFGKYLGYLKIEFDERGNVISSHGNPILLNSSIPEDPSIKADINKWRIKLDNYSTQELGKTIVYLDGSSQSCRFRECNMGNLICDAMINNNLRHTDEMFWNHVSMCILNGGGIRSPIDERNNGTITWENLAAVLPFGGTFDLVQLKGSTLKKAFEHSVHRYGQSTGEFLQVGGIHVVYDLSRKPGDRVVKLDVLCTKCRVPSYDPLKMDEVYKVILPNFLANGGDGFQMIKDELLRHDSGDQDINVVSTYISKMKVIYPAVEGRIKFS
Method: Fresh normal human blood is centrifuged at 1,500 g for 15 minutes at room temperature, and the upper fraction containing serum is collected. […] After incubation on ice for 60 min, […] (50 uM) is added to each well in the plate, and the plate is incubated at room temperature for 15 min. The plate is then placed on dry ice with addition of 200 uL/well of 17.3 TCA followed by shaking at 26 fps for 3 min with a plate-shaking machine (Qiagen). The plate is then centrifuged at 2940 g for 20 min at 4° C. […] After further centrifugation at 2940 g for 20 min at 4° C., 200 ul/well of the supernatant is used for analysis of ^13C10-^15N5-adenosine, ^13C10-^15N5-inosine and ^15N5-hypoxanthine by LC/MS as described above. For EC50 calculations, the concentrations of the CD73 inhibitor in the serum are corrected with the fraction unbound (%) derived from in silico models or experimentally.

[2] = tested on: human PBMCs or CD4 cells; assay: T Cell Suppression Assay (rescue of adenosine-mediated inhibition of T cell proliferation); type: cell-based; details: for Rescue of T cell proliferation (%): AMP in medium, 68-70 hr
Method: Cells are placed in a 37° C. water bath for 10 min to pre-activate T cells. […] To test compounds using PBMCs, test compounds at various concentrations are prepared in cell normal growth media (125 μL) containing 400-600 μM AMP. […] Treated cells are cultured at 37° C., 5% CO2 for 68-70 hr.
Medium (100 μl) containing CD4 cells is transferred to and filtered through AcroPrep plates to another plate via centrifugation at 1500 g for 2 hr. Filtered medium (50 μl/well) is mixed with the same volume of 80% methanol, 1% NH4OH, and internal standards (250 ng/mL ^13C5-AMP and 250 ng/mL ^13C5-Adenosine) for LC-MS analysis of metabolites.
Treated PBMCs or CD4 cells are collected and stained for Flow Cytometry to quantify T cell proliferation.
Flow data are acquired by BD FACS Verse. Each fluorescence channel is appropriately compensated. The data are processed on FloJo ver. 7.6.5 with the following gating strategy: lymphocytes gated on FSC vs SSC dot plot; viable cells of lymphocytes gated on SSC vs Zombie Aqua dot plot; CD3 cells of viable lymphocytes gated on APC-Cy7 vs Zombie Aqua dot plot1; CD4 cell and CD8 cells of CD3 cells gated on APC vs Pacific Blue dot plot; CD4 and CD8 cells further gated on APC vs CFSE(FITC) and Pacific Blue vs CFSE(FITC) dot plots. Proliferation of CD4 and CD8 cells is analyzed by a proliferation tool.

[3] = target: T2, murine CD73 (Mus musculus, UniProt Q61503); assay: Ex Vivo Target Inhibition Assay (mouse whole blood after oral dosing); type: in vivo; details: read-out: Inhibition of AMP conversion to adenosine, Inhibition (%)
T2 construct: from tissue; host or cells: mouse whole blood (heparin) from orally dosed animals
T2 sequence (Q61503 29-551): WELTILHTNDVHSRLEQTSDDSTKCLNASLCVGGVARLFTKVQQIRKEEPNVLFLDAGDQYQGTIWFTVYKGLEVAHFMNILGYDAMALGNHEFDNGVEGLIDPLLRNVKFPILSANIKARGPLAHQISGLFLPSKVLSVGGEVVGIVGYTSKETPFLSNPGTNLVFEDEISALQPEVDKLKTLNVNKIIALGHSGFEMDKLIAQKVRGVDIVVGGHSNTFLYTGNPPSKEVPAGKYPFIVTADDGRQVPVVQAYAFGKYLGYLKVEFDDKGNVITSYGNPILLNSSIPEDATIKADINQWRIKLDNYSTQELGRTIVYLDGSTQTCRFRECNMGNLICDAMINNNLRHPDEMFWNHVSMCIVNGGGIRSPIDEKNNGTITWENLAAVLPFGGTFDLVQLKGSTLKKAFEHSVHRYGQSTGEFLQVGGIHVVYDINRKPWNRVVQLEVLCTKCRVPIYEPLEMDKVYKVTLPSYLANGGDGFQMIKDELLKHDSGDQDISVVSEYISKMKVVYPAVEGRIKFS
Method: The animals (6/group) are dosed orally with each compound formulated in 20% HPBCD (2-hydroxypropyl-β-cyclodextrin), pH 2 after tumors reach to approximately 400 mm^3.

[4] = tested on: CD4^+ T cells; assay: Cytokine Analysis (ELISA); type: cell-based, human
Method: CFSE labeled human PBMCs (600,000 cells/mL) or CD4 cells (500,000 cells/mL) are mixed with Dynabeads® Human T-Activator CD3/CD28 (Gibco, cat #11131D) at a ratio of 1:1 of cell/beads and human IL-2 (60 IU/ml, Roche, cat #: 11011456001). Cells are placed in a 37° C. water bath for 10 min to pre-activate T cells. PBMCs (125 μl/well) or CD4 cells (100 μl/well) are transferred to a 96 well plate (Costar 3799, Corning Inc.). To test compounds using PBMCs, test compounds at various concentrations are prepared in cell normal growth media (125 μL) containing 400-600 μM AMP. To test compounds using CD4 cells, test compounds at various concentrations are prepared in cell normal growth media (100 μL) containing 200-250 μM AMP. Treated cells are cultured at 37° C., 5% CO2 for 68-70 hr.
Medium (160 μl) containing treated PBMCs is transferred to a plate and the remaining medium used for cytokine assay is transferred to AcroPrep 96 plates (AcroPrep 96 Filter plate, Omega 3K NTRL 350 ul well, Pall Life Science Cat #8033) for preparation of samples for LC-MS analysis of metabolites.
Culture medium from treated PBMCs is diluted at 1:7.5, 1:2.5 and 1:50 with 1× ELISA/ELISPOT Diluent from cytokine ELISA kits and analyzed for TNFα using Human TNF alpha ELISA Ready-SET-GO! Kit (eBioscience cat #88-7346-22), IL-1β using Human IL-1β ELISA ready-SET-GO! Kit (2nd generation) (eBioscience, cat #88-7261-22) and IFNγ using Human IFN gamma ELISA ready-SET-GO! Kit (eBioscience, cat #88-7316-22) based manufacturer's manuals.

CC(C)[C@H]1C[C@@H]1c1cc(-c2c[nH]c(=O)[nH]c2=O)nnc1Cl (relative stereo) [Example 8, 5-[6-Chloro-5-[rel-(1S,2R)-2-isopropylcyclopropyl]pyridazin-3-yl]-1H-pyrimidine-2,4-dione]
EC50 [1]: 179 nM

O=c1[nH]cc(-c2cc([C@H]3CC3(F)F)c(Cl)nn2)c(=O)[nH]1 (single isomer, unassigned) [Example 9]
EC50 [1]: 297 nM

Cc1nnc(-c2c[nH]c(=O)[nH]c2=O)cc1[C@H]1C[C@@H]1C(C)C [Example 2, 5-[5-[(1S,2R)-2-isopropylcyclopropyl]-6-methyl-pyridazin-3-yl]-1H-pyrimidine-2,4-dione]
Adenosine (uM) in the growth medium ([2]; compound 0.00229 uM): 0.28 µM
Rescue of T cell proliferation (%) ([2]; compound 0.00229 uM): −6%
Adenosine (uM) in the growth medium ([2]; compound 0.00686 uM): 0.28 µM
Rescue of T cell proliferation (%) ([2]; compound 0.00686 uM): −3%
Adenosine (uM) in the growth medium ([2]; compound 0.02058 uM): 0.21 µM
Rescue of T cell proliferation (%) ([2]; compound 0.02058 uM): −2%
Adenosine (uM) in the growth medium ([2]; compound 0.06173 uM): 0.15 µM
Rescue of T cell proliferation (%) ([2]; compound 0.06173 uM): 37%
Adenosine (uM) in the growth medium ([2]; compound 0.18519 uM): 0.086 µM
Rescue of T cell proliferation (%) ([2]; compound 0.18519 uM): 95%
Adenosine (uM) in the growth medium ([2]; compound 0.55556 uM): 0.046 µM
Rescue of T cell proliferation (%) ([2]; compound 0.55556 uM): 104%
Adenosine (uM) in the growth medium ([2]; compound 1.66667 uM): 0.027 µM
Rescue of T cell proliferation (%) ([2]; compound 1.66667 uM): 106%
Adenosine (uM) in the growth medium ([2]; compound 5.00 uM): 0.017 µM
Rescue of T cell proliferation (%) ([2]; compound 5.00 uM): 107%
inhibition at 1 mg/kg ([3]; 1 mg/kg oral): -10.6%
inhibition at 2.5 mg/kg ([3]; 2.5 mg/kg oral): 25.2%
inhibition at 6.4 mg/kg ([3]; 6.4 mg/kg oral): 37%
inhibition at 16 mg/kg ([3]; 16 mg/kg oral): 56.5%
inhibition at 40 mg/kg ([3]; 40 mg/kg oral): 88.6%
inhibition at 100 mg/kg ([3]; 100 mg/kg oral): 94.3%
INF-γ release, INF-γ ([4]; compound 0.003 uM): 34.5 pg/mL
TNF-α release, TNF-α ([4]; compound 0.003 uM): 386.3 pg/mL
INF-γ release, INF-γ ([4]; compound 0.008 uM): 29.5 pg/mL
TNF-α release, TNF-α ([4]; compound 0.008 uM): 419.9 pg/mL
INF-γ release, INF-γ ([4]; compound 0.025 uM): 51.1 pg/mL
TNF-α release, TNF-α ([4]; compound 0.025 uM): 557.8 pg/mL
INF-γ release, INF-γ ([4]; compound 0.074 uM): 59.4 pg/mL
TNF-α release, TNF-α ([4]; compound 0.074 uM): 782.0 pg/mL
INF-γ release, INF-γ ([4]; compound 0.222 uM): 146.7 pg/mL
TNF-α release, TNF-α ([4]; compound 0.222 uM): 1265.5 pg/mL
INF-γ release, INF-γ ([4]; compound 2.000 uM): 99.5 pg/mL
TNF-α release, TNF-α ([4]; compound 2.000 uM): 1183.9 pg/mL
INF-γ release, INF-γ ([4]; compound 6.000 uM): 105.3 pg/mL
TNF-α release, TNF-α ([4]; compound 6.000 uM): 1985.5 pg/mL

O=c1[nH]cc(-c2cc([C@H]3C[C@@H]3C(F)F)c(Cl)nn2)c(=O)[nH]1 [Example 10, 5-[6-Chloro-5-[(1S,2S)-2-(difluoromethyl)cyclopropyl]pyridazin-3-yl]-1H-pyrimidine-2,4-dione]
EC50 [1]: 55 nM

CC[C@H]1C[C@@H]1c1cc(-c2c[nH]c(=O)[nH]c2=O)nnc1C#N [Example 22, 6-(2,4-Dioxo-1H-pyrimidin-5-yl)-4-[(1S,2S)-2-ethylcyclopropyl]pyridazine-3-carbonitrile]
EC50 [1]: 212 nM
